Assay results: US12263248B2, “Compounds and compositions for intracellular delivery of therapeutic agents” (ModernaTX, Inc., priority 2018, dated 2025)

Key:
[1] = Encapsulation efficiency of RNA (QUANT-IT RIBOGREEN RNA assay); assay type: physicochemical
Procedure, shortened: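 RiboGreen fluorescence (ex ~480, em ~520 nm) compared between intact samples and Triton X-100-lysed samples after 15 min at 37 °C in TE buffer, pH 7.5. Percent free RNA is the blank-corrected intact/disrupted ratio.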

hEPO mRNA [2] = experiment: hEPO expression after intramuscular administration to mice; assay type: in vivo; settings: Table 3I, hEPO
Protocol: The expression of hEPO and cytokine induction in mice intravenously administered a nanoparticle composition at a dose of 0.5 mpk were measured at 3, 6, and 24 hours. […] The expression of hEPO in mice intramuscularly administered a nanoparticle composition from Table 1B at a dose of 0.01 mpk were measured at 3, 6, and 24 hours.
(§1) Blood collection and analysis for hEPO. Blood was collected from mice or rats via the tail vein and hEPO concentrations were determined using a hEPO ELISA assay.

luciferase (Luc) mRNA [3] = experiment: Luc expression (total flux) after intramuscular administration; assay type: in vivo, mice; settings: for Novel lipid/MC3 expression ratio, 6 hr. time point, i.m. Luc: intramuscular, relative to MC3 formulation; for i.m. Lipid/MC3 0.01 mpk, Luc, 6 h: Table 3B
Procedure, shortened: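 Total-flux luciferase signal in mice after one intramuscular injection. Nanoparticle formulations contained modified Luc mRNA, either alone or co-dosed with H10 mRNA (e.g., 0.0005 or 0.005 mpk of each), giving 0.001 or 0.01 mpk.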

[4] = Particle size and polydispersity index of nanoparticle compositions (Zetasizer Nano ZS); assay type: physicochemical
Procedure, shortened: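 Measured in 1×PBS by Zetasizer Nano ZS.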

[5] = Apparent (surface) pKa of the LNP formulation (TNS assay); assay type: physicochemical; settings: for pKa: Table 1A; for App. pKa: Table 3F
Procedure, shortened: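 Fluorescence of TNS probe added to LNP samples (mRNA 0.04 mg/mL) was read across 21 buffers of pH about 3-12, triplicate per pH. The inflection point of the sigmoidal fluorescence-vs-pH curve, […], gives apparent pKa; method validated in 1× PBS and Tris/sucrose buffer.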

luciferase (Luc) mRNA [6] = experiment: Luc expression, whole body bioluminescence after intravenous administration to mice; assay type: in vivo; settings: Table 3E; intravenous
Procedure, shortened: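 Bioluminescence, read as region-of-interest total flux at 3, 6 and 24 h, followed a single 0.5 mg/kg intravenous dose of Luc mRNA-loaded nanoparticles in mice (n=6). Luciferin substrate (200 μL, 15 mg/mL in PBS) was injected intraperitoneally into CD-1 mice 15 minutes ahead of each imaging point.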

hEPO mRNA [7] = experiment: hEPO expression after subcutaneous administration to mice; assay type: in vivo, female CD-1 mice; settings: for hEPO expression Lipid/Compound 18 ratio, 6 hr. / hEPO expression Lipid/Compound 18 ratio, AUC: 0.5 mpk; for Novel lipid/MC3 expression ratio, 6 hr. time point, s.c. hEPO 0.5 mpk: relative to MC3
Protocol: (§2) The effect of the lipids of the disclosure on protein expression upon subcutaneous administration was studied. Formulations containing lipids of the disclosure and an mRNA expressing luciferase or hEPO were administered subcutaneously to female CD-1 mice at 0.5 mpk. Expression levels were obtained via whole body luminescent imaging (BLI) at 3, 6 and 24 hours after injection and expression levels in liver, spleen and at the injection site were evaluated ex vivo after 24 hours. […] See also Tables 35 and 36, and FIGS. 19 and 27.
Table 36 summarizes the hEPO expression levels using various nanoparticle compositions of the disclosure as compared to the hEPO expression level using a formulation containing MC3 or Compound 18, following subcutaneous administration, as described above.

[8] = Lipid clearance: lipid level in mouse liver tissue (LC-MS/MS); assay type: in vivo; settings: Table 3E, mouse liver
[9] = Residual lipid levels in rat liver and spleen (UPLC-MS); assay type: in vivo; settings: Table 19B, liver, 24 h
Protocol: At 48 h liver tissue was harvested for lipid quantification. To pre-weighed tissues, Milli-Q water was added (900 μL water per 100 mg tissue). Tissues were homogenized using an Omni probe homogenizer until uniform. 50 μL of samples and matrix calibration standards were aliquoted into a 96-well plate. 50 μL of blank matrix for matrix blanks and control blanks were aliquoted. 400 μL is spiking solution were manually added to all samples except matrix blanks. 400 μL of 50:50 ACN:IPA were manually added to matrix blanks. The plate was covered and the samples vortexed and centrifuged for 5 minutes at >3000 rpm. 200 μL of the samples were transferred into a clean 96-well plate for analysis. Samples were analyzed on a Waters Acquity UPLC using a Higgins Analytical Clipeus C8 column ([…], 30×2.1 mm) and a gradient of either 70-95% or 60-95% (Mobile Phase A: 5 mM ammonium formate in 50:50:1 H2O:MeOH:formic acid; Mobile Phase B: 5 mM ammonium formate in 100:1 MeOH:formic acid) over 1.3 min at 1.2 mL/min (column temperature 55° C.). Detection was based on electrospray ionization (ESI) in positive mode using a Sciex API5500 Mass Spectrometer.
(§3) The expression of hEPO in rats intravenously administered a nanoparticle composition at a dose of 0.2 mpk or 2.0 mpk was measured at 6 hours. Table 16 summarize the ratio of hEPO expression levels using various nanoparticle compositions as compared to the hEPO expression level using MC3 formulation and the lipid levels in the liver measured 48 hours after administration, as described above. Tables 17 and 18 summarize the lipid levels in the liver and spleen measured 48 hours after administration of Compounds 28, 33, 53, and 54. Liver and spleen levels represent the average values calculated for 3 rats in each group. As is shown in Tables 17 and 18, less than 10% of Compounds 28, 33, 53, and 54 remained in the liver after 48 hours, while greater than 60% of MC3 remained.
(§4) 005781 The expression of hEPO and lipid levels in the liver and spleen in rats intravenously administered a nanoparticle composition at a dose of 0.2 mpk was measured at various time points. Compounds 18 and 25 were selected for comparison with MC3. Lipids were formulated according to the standard MC3 formulation described above. Rats were administered intravenously a single 0.2 mpk dose and expression monitored at 0.25, 0.5, 1, 2, 4, 8, 24, and 48 hours after administration.

hEPO mRNA [10] = experiment: hEPO expression after intravenous administration to rats; assay type: in vivo, rat; settings: Table 19B
Protocol: The expression of hEPO and cytokine induction in rats intravenously administered a nanoparticle composition at a dose of 2.0 mpk was measured at 6 h.
as §3
The expression of hEPO induced by intravenous administration to rats of nanoparticle compositions at various doses was measured at 2, 4, 6, 8, 24, and 48 hour time points. FIGS. 3-6 respectively summarize the hEPO expression measured upon intravenous administration of formulations including Compounds 26, 18, 25, and MC3 to rat at various doses. The lipid levels of Compound 26 in the liver after 48 hours were about 19%.
as §4, §1

luciferase mRNA = experiment: Luciferase expression after subcutaneous administration to mice; assay type: in vivo, female CD-1 mice; settings: 0.5 mpk, relative to MC3
Protocol: as §2
Table 35 summarizes the luciferase expression levels using various nanoparticle compositions of the disclosure, and the luciferase expression levels using various nanoparticle compositions of the disclosure as compared to the luciferase expression level using an MC3 formulation after subcutaneous administration, as described above.

[11] = Table 1A, lipid:DSPC:cholesterol:PEG-DMG 50:10:38.5:1.5 mol %
[12] = Table 1D, for subcutaneous administration, # formulated with hEPO mRNA
[13] = Table 1B, formulated with hEPO mRNA
[14] = Table 1E, compositions for subcutaneous administration

Compound | EE (%) ([1]; Table 1A) | PDI ([4]; Table 1A) | Size (nm) [4, 11] [nm] | pKa [5] | % EE [1, 12] [%] | PDI [4, 12] | Size (nm) [4, 12] [nm] | Lipid/MC3 6 h timepoint (hEPO mRNA [2]) | Lipid/MC3 AUC (hEPO mRNA [2]) | also measured
CCCCCCCCCC(=O)OC(C)CCCCCCN(CCO)CCCCCCCOC(=O)C(CCCCCCCC)CCCCCCCC (stereo not drawn) [Compound 165, 7-((7-(Decanoyloxy)octyl)(2-hydroxyethyl)amino)heptyl 2-octyldecanoate] | 92.9 | 0.14 | 84.6 | 6.50 | 93.5 | 0.14 | 74.3 |  |  | 6 h BLI Lipid/MC3 (luciferase (Luc) mRNA [6]): 2.12; hEPO expression Lipid/Compound 18 ratio, 6 hr. (hEPO mRNA [7]): 0.63; hEPO expression Lipid/Compound 18 ratio, AUC (hEPO mRNA [7]): 0.64; % Remaining dose at 6 h [8]: 29.1%; % Remaining dose at 24 h [8]: 12.7%
CCCCCCCCCC(=O)OC(C)CCCCCCN(CCO)CCCCCCCC(=O)OC(CCCCCCCC)CCCCCCCC (stereo not drawn) [Compound 98, 8-((8-(Heptadecan-9-yloxy)-8-oxooctyl)(2-hydroxyethyl)amino)octan-2-yl decanoate] | 94.4 |  |  | 6.53 | 93.8 | 0.14 | 74.8 |  |  | 6 h BLI Lipid/MC3 (luciferase (Luc) mRNA [6]): 3.16; hEPO expression Lipid/Compound 18 ratio, 6 hr. (hEPO mRNA [7]): 0.69; hEPO expression Lipid/Compound 18 ratio, AUC (hEPO mRNA [7]): 0.69; % Remaining dose at 6 h [8]: 26.8%; % Remaining dose at 24 h [8]: 14.7%
CCCCCCCCCOC(=O)CCCCCCCN(CCCCCCCC(=O)OC(CCCCCCCC)CCCCCCCC)CCCNc1c(N(C)C)c(=O)c1=O [Compound 169, Heptadecan-9-yl 8-((3-((2-(dimethylamino)-3,4-dioxocyclobut-1-en-1-yl)amino)propyl)(8-(nonyloxy)-8-oxooctyl)amino)octanoate] | 99.4 | 0.17 | 87.4 | 6.77. |  |  |  | 4.6 | 4.7 | i.m. Lipid/MC3 0.01 mpk, Luc, 6 h (luciferase (Luc) mRNA [3]): 3.3; App. pKa [5]: 7.63
CCCCCCCCCOC(=O)CCCCCCCN(CCCCCCCC(=O)OC(CCCCCCCC)CCCCCCCC)CCCN/C(=N/C#N)N(C)C [Compound 168, Heptadecan-9-yl (Z)-8-((3-(2-cyano-3,3-dimethylguanidino)propyl)(8-(nonyloxy)-8-oxooctyl)amino)octanoate] | 91.4 | 0.20 | 102.3 | 6.74 | 96.1 | 0.07 | 87.4 |  |  | % EE [1, 14]: 95%; i.m. Lipid/MC3 0.01 mpk, Luc, 6 h (luciferase (Luc) mRNA [3]): 16.0; flux measured at 6 h relative to the MC3 formulation (luciferase (Luc) mRNA [3]; intramuscular administration (i.m.), in words): sixteen; PDI [4, 14]: 0.08; Size (nm) [4, 14]: 85.0 nm; Novel lipid/MC3 expression ratio, 6 hr. time point, s.c. hEPO 0.5 mpk (hEPO mRNA [7]): 2.36; App. pKa [5]: 6.90; Novel lipid/MC3 expression ratio, 6 hr. time point, s.c. Luc 0.5 mpk (luciferase mRNA): 0.58

Further lines, with some results ahead:

EE (%) ([1]; Table 1A) | PDI ([4]; Table 1A) | Size (nm) [4, 11] [nm] | pKa [5] | % EE [1, 12] [%] | PDI [4, 12] | Size (nm) [4, 12] [nm] | Compound | Lipid/MC3 6 h timepoint (hEPO mRNA [2]) | Lipid/MC3 AUC (hEPO mRNA [2]) | also measured
94.7 | 0.12 | 104.2 | 6.90 |  |  |  | CCCCCCCCCOC(=O)CCCCCCCN(CCCCCCCC(=O)OC(CCCCCCCC)CCCCCCCC)CCCNC(=O)COC [Compound 178, Heptadecan-9-yl 8-((3-(2-methoxyacetamido)propyl)(8-(nonyloxy)-8-oxooctyl)amino)octanoate] | 10.4 | 9.3 | Novel lipid/MC3 expression ratio, 6 hr. time point, i.m. Luc (luciferase (Luc) mRNA [3]): 7.14
 |  |  |  | 102 | 0.22 | 81.4 | CCCCCCCCCOC(=O)CCCCCCCN(CCCCCCCC(=O)OC(CCCCCCCC)CCCCCCCC)CCCNC(=N)N [Compound 207, Heptadecan-9-yl 8-((3-guanidinopropyl)(8-(nonyloxy)-8-oxooctyl)amino)octanoate] |  |  | Novel lipid/MC3 expression ratio, 6 hr. time point, s.c. hEPO 0.5 mpk (hEPO mRNA [7]): 0
97.65 | 0.15 | 76.2 |  |  |  |  | CCCCCCCCCOC(=O)CCCCCCCN(CCCCCCCC(=O)OC(CCCCCCCC)CCCCCCCC)CCCN/C(=N/[N+](=O)[O-])NC [Compound 200, Heptadecan-9-yl (E)-8-((3-(3-methyl-2-nitroguanidino)propyl)(8-(nonyloxy)-8-oxooctyl)amino)octanoate] | 2.6 | 2.7 | EE (%) [1, 13]: 97.3%; Novel lipid/MC3 expression ratio, 6 hr. time point, i.m. Luc (luciferase (Luc) mRNA [3]): 8.11; % dose remaining, liver, 24 h [9]: 0.36%; PDI [4, 13]: 0.19; Size (nm) [4, 13]: 95.3 nm; AUC (hEPO) (hEPO mRNA [10]): 2.4e+07 pg·h/mL; Lipid/MC3 AUC (hEPO mRNA [10]; relative to MC3): 1.30; [hEPO] (hEPO mRNA [10]; species, dose and time not given): 1.72e+06 pg/mL
